Results as given in patent publication US20150239831A1, “INHIBITORS OF CENTRAL NERVOUS SYSTEM VASOACTIVE INHIBITORY PEPTIDE RECEPTOR 2” (The Trustees Of Columbia University In The City Of New York, priority 2012, published 2015).

Experiments:
Format in all cases: cell-based
Parameters in all cases: expressed in transfected cells; host or cells: HEK293 cells transfected with VIPR2 in pCDNA3.1 (as described)
VIPR2 [1] = target: T1, VIPR2 (Homo sapiens, UniProt P41587); assay: Inhibition of VIP-induced cAMP elevation (% Activity cAMP)
T1 sequence (P41587 24-438): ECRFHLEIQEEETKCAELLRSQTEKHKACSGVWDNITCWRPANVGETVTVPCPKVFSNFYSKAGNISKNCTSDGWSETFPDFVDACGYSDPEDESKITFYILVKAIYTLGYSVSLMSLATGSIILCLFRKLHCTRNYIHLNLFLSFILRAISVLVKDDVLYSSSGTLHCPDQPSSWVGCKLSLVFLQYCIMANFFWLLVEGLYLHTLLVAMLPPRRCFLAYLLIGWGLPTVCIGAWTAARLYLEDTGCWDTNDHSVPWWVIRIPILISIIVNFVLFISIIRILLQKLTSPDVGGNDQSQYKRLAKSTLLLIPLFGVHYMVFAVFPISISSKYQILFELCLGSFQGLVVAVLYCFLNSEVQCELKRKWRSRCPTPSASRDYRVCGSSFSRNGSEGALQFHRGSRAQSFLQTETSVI
Procedure, shortened: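 HEK293 cells stably transfected with human VIPR2 were incubated with inhibitor and VIP for 30 min, then cAMP was detected by HTRF after at least 1 h at room temperature. The 665/620 nm ratio ×10,000 was calculated.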

VIPR2 [2] = target: T1, VIPR2; assay: % Activity: inhibition of VIP-induced cAMP elevation and β-arrestin recruitment (Table 2)
Procedure, shortened: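 Recruitment of β-arrestin measured by β-gal fragment complementation luminescence in HEK293 cells co-expressing VIPR2-ProLink and β-arrestin2-EA after 2 h compound at 37° C. VIP-driven cAMP rise in stable hVIPR2 HEK293 cells measured by HTRF after 30 min with inhibitor and VIP.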

VIPR2 [3] = target: T1, VIPR2; assay: Inhibition of VIP-induced β-arrestin recruitment (% Activity Arrestin)
Procedure, shortened: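 Read-out is β-gal fragment complementation (luminescence) between ProLink-hVIPR2 and EA-β-arrestin2 in transiently transfected HEK293 cells. Cells rested overnight, then exposed to inhibitor 2 h at 37 °C before detection reagent (5 min–1 h, room temperature); values are % activity against VIP-driven recruitment.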

inhibition at 0.5 µM (VIPR2 [1]; Batch 2)	inhibition at 1 µM (VIPR2 [1]; Batch 2)	inhibition at 5 µM (VIPR2 [1]; Batch 2)	% Activity (VIPR2 [2])	inhibition at 0.5 µM (VIPR2 [3]; Batch 2)	inhibition at 1 µM (VIPR2 [3]; Batch 2)	inhibition at 5 µM (VIPR2 [3]; Batch 2)	inhibition at 0.5 µM (VIPR2 [1]; Batch 1)	inhibition at 1 µM (VIPR2 [1]; Batch 1)	inhibition at 5 µM (VIPR2 [1]; Batch 1)	inhibition at 0.5 µM (VIPR2 [3]; Batch 1)	inhibition at 1 µM (VIPR2 [3]; Batch 1)	inhibition at 5 µM (VIPR2 [3]; Batch 1)	Structure (SMILES)
–	–	–	13.75%	–	–	–	18.4%	17%	17%	24.4%	16.4%	10.5%	O=C(NC[C@@H](O)C[C@@H](Cc1ccccc1)C(=O)N[C@H]1c2ccccc2C[C@H]1O)C1CCCCCC1 [Compound A8]
–	–	–	20.85%	–	–	–	20.6%	21.6%	41.1%	17.6%	30.2%	0.6%	Cc1cc(S(=O)(=O)NC[C@@H](O)C[C@@H](Cc2ccccc2)C(=O)N[C@H]2c3ccccc3C[C@H]2O)c(C)cc1Cl [Compound A3]
–	–	–	15.5%	–	–	–	10.7%	16%	23.2%	16.2%	11.3%	7.8%	CC(C)(C)c1ccc(C(=O)NC[C@@H](O)C[C@@H](Cc2ccccc2)C(=O)N[C@H]2c3ccccc3C[C@H]2O)cc1 [Compound A26]
7%	8.3%	9.3%	6.25%	6.9%	4%	3.2%	–	–	–	–	–	–	CNC(=O)[C@H](Cc1ccccc1)C[C@H](O)CNS(=O)(=O)c1ccc([N+](=O)[O-])cc1 [Compound B20]
–	–	–	21.1%	–	–	–	13.3%	15.6%	22.2%	7.1%	3.2%	20%	CC(C)CS(=O)(=O)NC[C@@H](O)C[C@@H](Cc1ccccc1)C(=O)N[C@H]1c2ccccc2C[C@H]1O [Compound A11]

Further lines, the compound ahead of its results:

Structure (SMILES)	inhibition at 0.5 µM (VIPR2 [1]; Batch 2)	inhibition at 1 µM (VIPR2 [1]; Batch 2)	inhibition at 5 µM (VIPR2 [1]; Batch 2)	% Activity (VIPR2 [2])	inhibition at 0.5 µM (VIPR2 [3]; Batch 2)	inhibition at 1 µM (VIPR2 [3]; Batch 2)	inhibition at 5 µM (VIPR2 [3]; Batch 2)	inhibition at 0.5 µM (VIPR2 [1]; Batch 1)	inhibition at 1 µM (VIPR2 [1]; Batch 1)	inhibition at 5 µM (VIPR2 [1]; Batch 1)	inhibition at 0.5 µM (VIPR2 [3]; Batch 1)	inhibition at 1 µM (VIPR2 [3]; Batch 1)	inhibition at 5 µM (VIPR2 [3]; Batch 1)
CCNC(=O)[C@@H](Cc1ccccc1)C[C@H](O)CNS(=O)(=O)c1ccc([N+](=O)[O-])cc1 [Compound B16B]	-13.2%	-0.9%	-22.2%	−14.9%	-10%	6%	-7.6%	–	–	–	–	–	–
O=C(NCc1ccc(F)cc1F)[C@@H](Cc1ccccc1)C[C@H](O)CNS(=O)(=O)c1ccc([N+](=O)[O-])cc1 [Compound B14B]	-5.4%	4.7%	18.2%	21.1000%	23.9%	20%	24%	–	–	–	–	–	–
CC1CCC(NC(=O)[C@@H](Cc2ccccc2)C[C@H](O)CNS(=O)(=O)c2ccc([N+](=O)[O-])cc2)CC1 (some centres unmarked) [Compound B8B]	-0.7%	9.5%	5.1%	2.15%	5.7%	-0.4%	-0.8%	–	–	–	–	–	–
Cc1ccc([N+](=O)[O-])cc1S(=O)(=O)NC[C@@H](O)C[C@@H](Cc1ccccc1)C(=O)N[C@H]1c2ccccc2C[C@H]1O [P]	–	–	–	8.85%	–	–	–	10.9%	13.6%	18.3%	-12%	-3.8%	-0.6%
O=C(NC[C@@H](O)C[C@@H](Cc1ccccc1)C(=O)N[C@H]1c2ccccc2C[C@H]1O)c1cccc(Br)c1 [Q]	–	–	–	12.75%	–	–	–	17.4%	18.5%	20.3%	-3.8%	6.8%	5.2%
COc1cc(C(=O)NC[C@@H](O)C[C@@H](Cc2ccccc2)C(=O)N[C@H]2c3ccccc3C[C@H]2O)cc(OC)c1OC [H]	–	–	–	13.65%	–	–	–	15.6%	20%	9.3%	29.6%	37.2%	18%
